According to US12702715B2, “Targeted RNA degradation allows precision repurposing of protein-targeted small molecule medicines to RNA” (University of Florida Research Foundation, Incorporated, priority 2020, dated 2026):
Entries after “also recorded” stand apart in the source; their conditions may differ.

Legend:
Format in all cases: cell-based, human
[1] = system: RTK / phosphorylation of ERK (pERK); assay: Western blot of ERK phosphorylation (functional RTK inhibition) in MDA-MB-231 cells; settings: for IC50: Homo sapiens, MDA-MB-231; for dose inhibiting ERK phosphorylation to the similar extent: Western blot quantification
Experimental: Western Blotting. MDA-MB-231 cells were plated in 6-well plates. […] The cells were harvested by trypsinization, and total protein was extracted with MPER (Mammalian Protein Extraction Reagent, Thermo Scientific) as previously described^6. Protein concentrations were determined by using a Pierce Micro BCA Protein Assay kit (Fisher Scientific). […] ImageJ software was used for quantification of the protein bands. […] In each case, the secondary antibody was diluted two times more than the primary antibody.

PDCD4 = PDCD4 Western blot in MDA-MB-231 cells
Experimental: Western Blotting. MDA-MB-231 cells were plated in 6-well plates. When they reached ~50% confluency, they were treated with vehicle (DMSO) or 4. After 48 h, the medium was removed, and the cells were washed with 1×DPBS. The cells were harvested by trypsinization, and total protein was extracted with MPER (Mammalian Protein Extraction Reagent, Thermo Scientific) as previously described^6. Protein concentrations were determined by using a Pierce Micro BCA Protein Assay kit (Fisher Scientific). Approximately 10 μg of total protein from each sample obtained above was resolved on a SDS-polyacrylamide gel (10%), and the protein were transferred to a PVDF ([…]) membrane. After blocking the membrane in 1×TBST with 5% (w/v) nonfat milk for 60 min, the membrane was incubated with 1×TBST containing 5% milk and PDCD4 (Cell Signaling Technology, 9535S) primary antibody (1:1000 dilution) at 4° C. overnight. The membrane was washed with 1×TBST for 10 min three times and then incubated with 1:2000 anti-rabbit IgG horseradish-peroxidase secondary antibody conjugate (Cell Signaling Technology, 7074S) in 1× TBST containing 5% (w/v) milk for about 2 h. After washing with 1×TBST for 10 min three times, PDCD4 protein was detected by using SuperSignal West Pico Chemiluminescent Substrate (Pierce Biotechnology). After imaging, the membrane was stripped with 1× Stripping Buffer (200 mM glycine with 0.1% SDS, pH 2.2) for 120 min at RT, and β-actin level was detected as described for PDCD4 except using β-actin (Cell Signaling Technology, 3700S) primary antibody (1:5000 dilution). ImageJ software was used for quantification of the protein bands.

MDA-MB-231 cells = assay: Boyden chamber invasion assay, MDA-MB-231
Experimental: (§1) Boyden Chamber Invasion Assay. MDA-MB-231 or MCF-10A cells (5×10^4) in serum free growth medium with or without compound treatment were seeded into hanging cell culture inserts (for 24-well plates) pre-coated with Matrigel. Complete growth medium was added to the bottom well. After 16-24 h, the medium was removed, and the hanging inserts were washed with 1×DPBS twice and then fixed with 4% paraformaldehyde in 1×DPBS at room temperature for 20 min. Then the inserts were washed twice with 1×DPBS and stained with 0.1% (w/v) crystal violet 1×DPBS for 20 min. The inserts were washed twice with nanopure water and once with 1×DPBS. Cells on the surface of the Matrigel (non-invasive) were removed with cotton swabs and invading cells were counted and imaged under a microscope.

MCF-10A cells = assay: Boyden chamber invasion assay, MCF-10A; settings: for invasion phenotype of MCF-10A acquired by transfection of mutant pre-miR-21: 1 binding site ablated
Experimental: Cell Culture. Cells were cultured at 37° C. and 5% CO2. MDA-MB-231 cells (HTB-26, ATCC) were cultured in RMPI 1640 medium with L-glutamine & 25 mM HEPES supplemented with 1× Antibiotic/Antimycotic solution (Corning) and 10% FBS. MCF-10A cells (CRL-10317, ATCC) were cultured in 1×DMEM/F12 50/50 with L-glutamine & 15 mM HEPES (Corning) supplemented with 20% FBS, 1× Antibiotic/Antimycotic solution, 20 ng/mL human epidermal growth factor (Pepro Tech, Inc.), 10 μg/mL insulin (Sigma-Aldrich), and […] hydrocortisone (Pfaltz & Bauer). For compound treatment, compound stocks either in DMSO or water were diluted in growth medium and added to cells for the indicated time. Plasmid DNA to overexpress pre-miR-21 in pcDNA 3.1 (Addgene 21114) or a plasmid DNA encoding the pre-miR-21 mutant (custom purchased from GenScript USA, Inc.) was transfected with jetPRIME per the manufacturer's protocol. After transfection, the medium was replaced with growth medium containing the compound of interest, prepared as described above. The RNase L-targeting siRNA or a control siRNA was transfected with Lipofectamine RNAiMAX reagent (Invitrogen) per the manufacturer's protocol.
as §1

[2] = system: proteome of MDA-MB-231 cells; assay: Global proteomics profiling by LC-MS/MS; settings: for number of proteins significantly affected / abundance of miR-21 regulated proteins: 1 and 2 at 1 μM; for number of proteins significantly affected: LNA-21 0.1 μM, 48 h, 3000 proteins detected; for abundance of miR-21 regulated proteins: LNA-21 100 nM; for proteins associated with miR-let-7: control
Experimental: Global Proteomics Profiling by Using LC-MS/MS. MDA-MB-231 cells (~60% confluency) were treated with 1 (1 μM), 2 (1 μM), LNA-21 (0.1 μM), or vehicle for 48 h. After washing with 1×DPBS, the cells were harvested by scraping and resuspended in 1×DPBS. They were lysed by sonication and centrifuged at 14,000×g for 15 min. Protein concentrations were determined by a Bradford assay (Bio-Rad). Protein samples (340 μg) were denatured with 6 M urea in 50 mM NH4HCO3, pH 8, reduced with 10 mM TCEP (tris(2-carboxyethyl)phosphine hydrochloride) for 30 min, and alkylated with 25 mM iodoacetamide for 30 min in the dark. The samples were diluted to a final concentration of 2 M urea with 50 mM NH4HCO3, pH 8, and CaCl2) was added to a final concentration of 1 mM. The protein mixture was digested with tiypsin (1.5 μL of 0.5 μg/μL) overnight at 37° C. The digested protein samples were acidified with acetic acid and desalted over a self-packed C18 spin column. After lyophilization, the samples were analyzed by LC-MS/MS as described below.
LC-MS/MS Analysis and MaxQuant Analysis. The lyophilized protein obtained above was resuspended in 0.1% formic acid in water and analyzed by using an EASY-nLC 1200 nano-UHPLC coupled to Q Exactive HF-X Quadrupole-Orbitrap mass spectrometer (Thermo Scientific) as previously reported^6. Obtained spectra were then analyzed with MaxQuant (V1.6.1.0). Spectra were searched against the human proteome (Uniprot) and common contaminants. The search tolerance was set to 20 ppm for the first peptide search and 10 ppm for the main peptide search. The false discovery rate (FDR) for proteins, peptides and sites identification was set at 5%. All the parameters were set as previously reported^6.
Principal Component Analysis. Principal component analysis (PCA) was completed on the proteomics data that included 2,315 proteins that were detected in all samples after the technical replications were averaged, to visualize overall differences across the samples. R build in package prcomp^10 was used to perform the analysis, where scale was set to TRUE.

Structure (SMILES)	fold decrease of RTK inhibition relative to 1 [1] [fold]	shift of selectivity toward miR-21 over RTK ([1]; 25-fold (miR-21) × 100-fold (RTK), relative to 1)	IC50 [1] [µM]	inhibition of ERK phosphorylation compared to 1 ([1]; Western blot)	dose inhibiting ERK phosphorylation to the similar extent [1] [µM]	PDCD4 expression (PDCD4; MDA-MB-231, 1 and 2 at 1 μM, LNA-21 at 100 nM)	fold more potent downstream effects than 1 (PDCD4; PTEN, PDCD4, invasion) [fold]	invasion of MDA-MB-231 cells (MDA-MB-231 cells)	invasion phenotype of MCF-10A acquired by transfection of mutant pre-miR-21 (MCF-10A cells)	PCA similarity of proteome [2]	number of proteins significantly affected [2]	abundance of miR-21 regulated proteins [2]	proteins associated with miR-let-7 [2]	derepression of PDCD4 expression (PDCD4; 5 μM)	invasion phenotype of MCF-10A acquired by transfection of wild type pre-miR-21 (MCF-10A cells)	invasive nature of MCF-10A cells (MCF-10A cells; no overexpression)	number of affected proteins associated with ERK pathways ([2]; 1 μM)
CCOC(=O)C1=C(Nc2ccccc2)S/C(=C\c2ccc(OCCOCCOCCOCCNC(=O)NCCN3CCN(c4ccc5[nH]c(-c6c(N)c7c(F)cccc7[nH]c6=O)nc5c4)CC3)c(O)c2)C1=O [Compound 2, Ribotac-Dovitinib]	100	2,500 fold	10	reduced ability to inhibit ERK phosphorylation compared to 1	5	derepressed	10	reduced the invasive characteristic	had no effect; also recorded: unable to rescue	more similar to treatment with LNA-21 than 1	28	globally upregulated; also recorded: significant increase in abundance	Neither treatment with 1 nor 2 affected				
CN1CCN(c2ccc3nc(-c4c(N)c5c(F)cccc5[nH]c4=O)[nH]c3c2)CC1 [Compound 1, Dovitinib, reference compound]			0.1		0.05			inhibited invasiveness; also recorded: reduced	insensitive		46	had no effect; also recorded: no significant changes	Neither treatment with 1 nor 2 affected	~ 60%	reverted this phenotype; also recorded: inhibited	had no effect	14
